Reference: ChEMBL document CHEMBL3526033, “Identification of human liver cytochrome P450 enzymes involved in the metabolism of SCH 530348 (Vorapaxar), a potent oral thrombin protease-activated receptor 1 antagonist” (Drug Metab Dispos, 2011)

Assays:
Format in all cases: ADME
Cytochrome P450 2C9 [1] = target: T1, Cytochrome P450 2C9 (Homo sapiens, UniProt P11712); test: Activity of human recombinant CYP2C9 assessed as enzyme-mediated drug metabolism treated with 25 uM vorapaxar after 120 mins by LC-MS/MS analysis in presence of NADPH; settings: 2 h
Cytochrome P450 4F12 = Cytochrome P450 4F12 (Homo sapiens, UniProt Q9HCS2); test: Activity of human recombinant CYP4F12 assessed as enzyme-mediated drug metabolism treated with 25 uM vorapaxar after 120 mins by LC-MS/MS analysis in presence of NADPH; settings: 2 h
Cytochrome P450 2C8 [2] = target: T2, Cytochrome P450 2C8 (Homo sapiens, UniProt P10632); test: Activity of human recombinant CYP2C8 assessed as enzyme-mediated drug metabolism treated with 25 uM vorapaxar after 120 mins by LC-MS/MS analysis in presence of NADPH; settings: 2 h
Cytochrome P450 2J2 = target: T3, Cytochrome P450 2J2 (Homo sapiens, UniProt P51589); test: Drug metabolism assessed as human recombinant CYP2J2-mediated 2-hydroxyethyl (1R,3aR,4aR,6R,8aR,9S,9aS)-9-((E)-2-(5-(3-fluorophenyl)pyridin-2-yl)vinyl)-1-methyl-3-oxododecahydronaphtho[2,3-c]furan-6-ylcarbamate formation at 25 uM after 120 mins by LC-MS/MS analysis in presence of astemizole; settings: recombinant enzyme, 2 h
T3 sequence (P51589 whole entry): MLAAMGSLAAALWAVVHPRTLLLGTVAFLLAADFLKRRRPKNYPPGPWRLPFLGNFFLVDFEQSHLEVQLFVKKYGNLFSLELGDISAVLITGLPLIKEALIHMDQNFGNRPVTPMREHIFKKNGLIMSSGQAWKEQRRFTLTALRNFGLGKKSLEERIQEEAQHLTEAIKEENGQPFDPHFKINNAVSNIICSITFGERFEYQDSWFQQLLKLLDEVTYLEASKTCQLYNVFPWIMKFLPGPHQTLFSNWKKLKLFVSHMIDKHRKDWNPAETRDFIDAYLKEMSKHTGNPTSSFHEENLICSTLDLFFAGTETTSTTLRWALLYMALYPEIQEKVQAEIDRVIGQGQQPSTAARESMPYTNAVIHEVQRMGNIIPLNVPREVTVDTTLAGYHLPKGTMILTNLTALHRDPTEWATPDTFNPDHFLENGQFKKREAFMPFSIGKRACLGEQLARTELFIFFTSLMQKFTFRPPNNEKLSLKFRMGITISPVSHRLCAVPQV

Liver microsome [3] = test: Drug metabolism in human liver microsomes overexpressing CYP3A4 assessed as (3R,3aS,4S,4aR,7R,8aR,9aR)-7-amino-4-((E)-2-(5-(3-fluorophenyl)pyridin-2-yl)vinyl)-3-methyldecahydronaphtho[2,3-c]furan-1(3H)-one formation at 25 uM after 120 mins by LC-MS/MS analysis in presence of tranylcypromine; settings: 2 h
Liver microsome [4] = test: Drug metabolism in human liver microsomes assessed as (3R,3aS,4S,4aR,7R,8aR,9aR)-7-amino-4-((E)-2-(5-(3-fluorophenyl)pyridin-2-yl)vinyl)-3-methyldecahydronaphtho[2,3-c]furan-1(3H)-one formation at 10 to 25 uM after 120 mins by LC-MS/MS analysis in presence of tranylcypromine; settings: 2 h
Liver microsome [5] = test: Drug metabolism in human liver microsomes assessed as (3R,3aS,4S,4aR,7R,8aR,9aR)-7-amino-4-((E)-2-(5-(3-fluorophenyl)pyridin-2-yl)vinyl)-3-methyldecahydronaphtho[2,3-c]furan-1(3H)-one formation at 10 to 25 uM after 120 mins by LC-MS/MS analysis in presence of orphenadrine; settings: 2 h
[6] = Drug metabolism in human intestine microsomes assessed as ((4aR,6R)-9-{2-[(1R,4S)-5-((S)-3-Fluoro-phenyl)-pyridin-2-yl]-vinyl}-1-methyl-3-oxo-dodecahydro-naphtho[2,3-c]furan-6-yl)-carbamic acid(R)-2-hydroxy-ethyl ester formation by LC-MS/MS analysis in presence of 100 uM astemizole
Cytochrome P450 2C8 [7] = target: T2, Cytochrome P450 2C8; test: Activity of human recombinant CYP2C8 assessed as enzyme-mediated 2-hydroxyethyl (1R,3aR,4aR,6R,8aR,9S,9aS)-9-((E)-2-(5-(3-fluorophenyl)pyridin-2-yl)vinyl)-1-methyl-3-oxododecahydronaphtho[2,3-c]furan-6-ylcarbamate formation at 25 uM after 120 mins by LC-MS/MS analysis in presence of NADPH; settings: 2 h
Cytochrome P450 2C9 [8] = target: T1, Cytochrome P450 2C9; test: Activity of human recombinant CYP2C9 assessed as enzyme-mediated 2-hydroxyethyl (1R,3aR,4aR,6R,8aR,9S,9aS)-9-((E)-2-(5-(3-fluorophenyl)pyridin-2-yl)vinyl)-1-methyl-3-oxododecahydronaphtho[2,3-c]furan-6-ylcarbamate formation at 25 uM after 120 mins by LC-MS/MS analysis in presence of NADPH; settings: 2 h
Cytochrome P450 2C9 [9] = target: T1, Cytochrome P450 2C9; test: Activity of human recombinant CYP2C9 assessed as enzyme-mediated drug metabolism at 10 uM after 120 mins by LC-MS/MS analysis; settings: 2 h
Cytochrome P450 2D6 = Cytochrome P450 2D6 (Homo sapiens, UniProt P10635); test: Activity of human recombinant CYP2D6 assessed as enzyme-mediated drug metabolism at 10 uM after 120 mins by LC-MS/MS analysis; settings: 2 h
Liver microsome [10] = test: Drug metabolism in human liver microsomes assessed as (3R,3aS,4S,4aR,7R,8aR,9aR)-7-amino-4-((E)-2-(5-(3-fluorophenyl)pyridin-2-yl)vinyl)-3-methyldecahydronaphtho[2,3-c]furan-1(3H)-one formation after 120 mins by LC-MS/MS analysis; settings: 2 h
Cytochrome P450 2E1 = Cytochrome P450 2E1 (Homo sapiens, UniProt P05181); test: Activity of human recombinant CYP2E1 assessed as enzyme-mediated 2-hydroxyethyl (1R,3aR,4aR,6R,8aR,9S,9aS)-9-((E)-2-(5-(3-fluorophenyl)pyridin-2-yl)vinyl)-1-methyl-3-oxododecahydronaphtho[2,3-c]furan-6-ylcarbamate formation at 25 uM after 120 mins by LC-MS/MS analysis in presence of NADPH; settings: 2 h
Cytochrome P450 2C19 = Cytochrome P450 2C19 (Homo sapiens, UniProt P33261); test: Activity of human recombinant CYP2C19 assessed as enzyme-mediated (3R,3aS,4S,4aR,7R,8aR,9aR)-7-amino-4-((E)-2-(5-(3-fluorophenyl)pyridin-2-yl)vinyl)-3-methyldecahydronaphtho[2,3-c]furan-1(3H)-one formation at 25 uM after 120 mins by LC-MS/MS analysis in presence of NADPH; settings: 2 h
Cytochrome P450 4A11 = Cytochrome P450 4A11 (Homo sapiens, UniProt Q02928); test: Activity of human recombinant CYP4A11 assessed as enzyme-mediated 2-hydroxyethyl (1R,3aR,4aR,6R,8aR,9S,9aS)-9-((E)-2-(5-(3-fluorophenyl)pyridin-2-yl)vinyl)-1-methyl-3-oxododecahydronaphtho[2,3-c]furan-6-ylcarbamate formation at 25 uM after 120 mins by LC-MS/MS analysis in presence of NADPH; settings: 2 h
Cytochrome P450 3A5 = Cytochrome P450 3A5 (Homo sapiens, UniProt P20815); test: Activity of human recombinant CYP3A5 assessed as enzyme-mediated drug metabolism at 10 uM after 120 mins by LC-MS/MS analysis; settings: 2 h
Chain of Cytochrome P450 3A5 (P20815 whole entry): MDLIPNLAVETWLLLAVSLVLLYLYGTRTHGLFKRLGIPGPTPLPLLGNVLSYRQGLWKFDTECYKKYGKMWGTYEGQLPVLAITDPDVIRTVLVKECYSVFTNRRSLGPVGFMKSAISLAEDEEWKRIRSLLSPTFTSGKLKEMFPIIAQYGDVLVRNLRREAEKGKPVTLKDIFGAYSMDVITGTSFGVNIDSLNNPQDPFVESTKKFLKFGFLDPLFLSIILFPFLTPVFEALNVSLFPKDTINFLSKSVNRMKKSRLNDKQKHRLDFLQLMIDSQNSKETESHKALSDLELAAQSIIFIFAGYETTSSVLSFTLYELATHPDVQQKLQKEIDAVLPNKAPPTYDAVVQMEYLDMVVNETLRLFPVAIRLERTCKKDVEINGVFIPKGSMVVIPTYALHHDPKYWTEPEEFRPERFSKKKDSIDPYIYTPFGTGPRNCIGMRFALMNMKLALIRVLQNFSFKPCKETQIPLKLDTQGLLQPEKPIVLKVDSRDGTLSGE

T1 sequence (P11712 whole entry): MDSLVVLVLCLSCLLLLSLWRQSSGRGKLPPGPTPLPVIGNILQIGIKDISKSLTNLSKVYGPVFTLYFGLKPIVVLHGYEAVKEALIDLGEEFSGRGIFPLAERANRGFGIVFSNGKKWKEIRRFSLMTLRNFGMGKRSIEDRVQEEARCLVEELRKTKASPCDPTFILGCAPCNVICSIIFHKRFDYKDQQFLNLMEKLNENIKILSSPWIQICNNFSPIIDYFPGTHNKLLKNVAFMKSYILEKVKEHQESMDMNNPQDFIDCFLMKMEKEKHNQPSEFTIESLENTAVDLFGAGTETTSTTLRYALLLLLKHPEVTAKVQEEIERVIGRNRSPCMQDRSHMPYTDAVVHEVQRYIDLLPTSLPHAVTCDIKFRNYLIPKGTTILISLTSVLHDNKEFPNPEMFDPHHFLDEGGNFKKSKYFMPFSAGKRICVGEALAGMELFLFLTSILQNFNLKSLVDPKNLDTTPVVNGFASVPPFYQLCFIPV
T2 sequence (P10632 whole entry): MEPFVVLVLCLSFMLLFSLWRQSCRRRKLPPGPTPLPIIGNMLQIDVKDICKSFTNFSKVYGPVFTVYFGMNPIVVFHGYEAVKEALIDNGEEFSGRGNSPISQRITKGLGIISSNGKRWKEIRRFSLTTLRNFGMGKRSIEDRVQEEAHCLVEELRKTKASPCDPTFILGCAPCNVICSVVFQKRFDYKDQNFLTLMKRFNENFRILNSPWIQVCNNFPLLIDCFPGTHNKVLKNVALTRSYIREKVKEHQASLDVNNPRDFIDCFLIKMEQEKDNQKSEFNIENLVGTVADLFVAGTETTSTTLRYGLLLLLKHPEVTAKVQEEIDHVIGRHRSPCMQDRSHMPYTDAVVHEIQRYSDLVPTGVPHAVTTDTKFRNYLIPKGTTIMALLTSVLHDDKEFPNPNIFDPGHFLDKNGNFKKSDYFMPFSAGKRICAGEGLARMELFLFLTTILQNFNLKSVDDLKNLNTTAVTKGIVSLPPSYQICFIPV
Chain of Cytochrome P450 2E1 (P05181 whole entry): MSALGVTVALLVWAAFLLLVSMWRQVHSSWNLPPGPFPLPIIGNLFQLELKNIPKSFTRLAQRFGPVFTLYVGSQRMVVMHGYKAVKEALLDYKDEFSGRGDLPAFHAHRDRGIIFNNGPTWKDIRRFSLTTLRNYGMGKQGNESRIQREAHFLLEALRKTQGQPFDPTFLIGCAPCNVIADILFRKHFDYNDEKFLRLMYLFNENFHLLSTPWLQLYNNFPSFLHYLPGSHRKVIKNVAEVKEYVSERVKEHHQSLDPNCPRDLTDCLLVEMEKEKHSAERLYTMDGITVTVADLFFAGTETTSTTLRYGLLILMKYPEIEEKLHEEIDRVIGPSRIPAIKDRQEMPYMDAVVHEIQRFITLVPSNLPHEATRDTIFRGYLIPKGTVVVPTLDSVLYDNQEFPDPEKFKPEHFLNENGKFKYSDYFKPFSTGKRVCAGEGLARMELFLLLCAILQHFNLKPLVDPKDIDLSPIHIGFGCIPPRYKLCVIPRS
Chain of Cytochrome P450 4F12 (Q9HCS2 whole entry): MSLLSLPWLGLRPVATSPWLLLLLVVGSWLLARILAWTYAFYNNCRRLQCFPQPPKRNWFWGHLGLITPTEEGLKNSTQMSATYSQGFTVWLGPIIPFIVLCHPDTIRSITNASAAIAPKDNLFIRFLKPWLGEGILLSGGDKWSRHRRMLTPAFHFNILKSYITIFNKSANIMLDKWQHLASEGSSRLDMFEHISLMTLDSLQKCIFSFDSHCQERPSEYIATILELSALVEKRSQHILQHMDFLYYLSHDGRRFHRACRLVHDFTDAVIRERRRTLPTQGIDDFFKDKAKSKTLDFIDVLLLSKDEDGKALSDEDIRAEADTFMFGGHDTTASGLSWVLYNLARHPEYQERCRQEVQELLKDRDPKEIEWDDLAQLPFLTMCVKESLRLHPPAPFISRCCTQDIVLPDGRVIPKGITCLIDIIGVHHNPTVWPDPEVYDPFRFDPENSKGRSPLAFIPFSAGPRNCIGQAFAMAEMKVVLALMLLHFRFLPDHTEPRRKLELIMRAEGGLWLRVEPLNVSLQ
Chain of Cytochrome P450 2C19 (P33261 whole entry): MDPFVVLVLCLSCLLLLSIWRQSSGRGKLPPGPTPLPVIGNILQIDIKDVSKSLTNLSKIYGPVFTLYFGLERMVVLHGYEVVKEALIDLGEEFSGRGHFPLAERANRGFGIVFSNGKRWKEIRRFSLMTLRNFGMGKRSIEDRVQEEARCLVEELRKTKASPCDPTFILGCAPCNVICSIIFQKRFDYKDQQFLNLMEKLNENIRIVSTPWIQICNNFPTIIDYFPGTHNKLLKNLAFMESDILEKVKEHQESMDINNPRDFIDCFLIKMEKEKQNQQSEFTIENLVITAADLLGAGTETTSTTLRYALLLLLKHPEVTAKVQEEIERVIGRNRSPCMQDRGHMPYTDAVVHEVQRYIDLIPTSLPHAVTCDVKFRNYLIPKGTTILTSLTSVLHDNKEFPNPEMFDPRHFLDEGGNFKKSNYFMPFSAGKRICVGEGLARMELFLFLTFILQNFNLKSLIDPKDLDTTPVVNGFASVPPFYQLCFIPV
Chain of Cytochrome P450 4A11 (Q02928 whole entry): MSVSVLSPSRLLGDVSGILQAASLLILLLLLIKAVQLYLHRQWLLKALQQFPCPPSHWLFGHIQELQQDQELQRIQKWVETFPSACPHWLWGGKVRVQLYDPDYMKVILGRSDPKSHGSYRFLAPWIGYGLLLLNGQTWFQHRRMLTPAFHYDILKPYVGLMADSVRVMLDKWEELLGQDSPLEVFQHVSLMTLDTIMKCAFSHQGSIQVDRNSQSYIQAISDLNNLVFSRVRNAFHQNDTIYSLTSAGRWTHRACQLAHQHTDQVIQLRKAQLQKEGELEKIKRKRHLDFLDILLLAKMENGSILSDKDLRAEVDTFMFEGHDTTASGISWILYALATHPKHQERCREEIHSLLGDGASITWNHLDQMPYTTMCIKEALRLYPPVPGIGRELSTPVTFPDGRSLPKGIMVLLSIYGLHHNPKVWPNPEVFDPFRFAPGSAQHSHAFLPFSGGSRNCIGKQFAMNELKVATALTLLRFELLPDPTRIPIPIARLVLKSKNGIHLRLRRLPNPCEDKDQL
Chain of Cytochrome P450 2D6 (P10635 whole entry): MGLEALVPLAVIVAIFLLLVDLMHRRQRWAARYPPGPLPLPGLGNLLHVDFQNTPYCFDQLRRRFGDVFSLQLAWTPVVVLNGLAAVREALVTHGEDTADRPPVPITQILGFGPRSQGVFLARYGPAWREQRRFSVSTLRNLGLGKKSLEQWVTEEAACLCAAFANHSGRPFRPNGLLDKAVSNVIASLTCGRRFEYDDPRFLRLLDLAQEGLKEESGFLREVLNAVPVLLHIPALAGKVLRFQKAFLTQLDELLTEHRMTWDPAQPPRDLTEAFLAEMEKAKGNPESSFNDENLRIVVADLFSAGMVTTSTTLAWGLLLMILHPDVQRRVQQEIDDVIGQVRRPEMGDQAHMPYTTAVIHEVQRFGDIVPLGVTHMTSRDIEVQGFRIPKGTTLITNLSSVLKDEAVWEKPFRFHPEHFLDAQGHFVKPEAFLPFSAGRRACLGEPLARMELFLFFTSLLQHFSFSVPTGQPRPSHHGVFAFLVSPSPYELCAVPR

C[C@H]1OC(=O)[C@@H]2C[C@@H]3C[C@H](NC(=O)OCCO)CC[C@H]3[C@H](/C=C/c3ccc(-c4cccc(F)c4)cn3)[C@H]12
Drug metabolism (Cytochrome P450 2C9 [1]): metabolite_detected
Drug metabolism (Cytochrome P450 4F12): metabolite_detected
Drug metabolism (Cytochrome P450 2C8 [2]): metabolite_detected

CCOC(=O)N[C@@H]1CC[C@@H]2[C@@H](C1)C[C@H]1C(=O)O[C@H](C)[C@H]1[C@H]2/C=C/c1ccc(-c2cccc(F)c2)cn1 [VORAPAXAR]
Drug metabolism (Cytochrome P450 2J2): metabolite_not_detected
Drug metabolism (Liver microsome [3]): metabolite_not_detected
Drug metabolism (Liver microsome [4]): metabolite_not_detected
Drug metabolism (Liver microsome [5]): metabolite_not_detected
inhibition (INH) [6]: 77%

CCOC(=O)N[C@@H]1CC[C@@H]2[C@@H](C1)C[C@H]1C(=O)O[C@H](C)[C@H]1[C@H]2/C=[14CH]/c1ccc(-c2cccc(F)c2)cn1
Drug metabolism (Cytochrome P450 2C8 [7]): metabolite_detected
Drug metabolism (Cytochrome P450 2C9 [8]): metabolite_detected
Drug metabolism (Cytochrome P450 2C9 [9]): metabolite_not_detected
Drug metabolism (Cytochrome P450 2D6): metabolite_not_detected
Km (Liver microsome [10]): 23.5 µM
Drug metabolism (Cytochrome P450 2E1): metabolite_detected
Drug metabolism (Cytochrome P450 2C19): metabolite_detected
Drug metabolism (Cytochrome P450 4A11): metabolite_detected
Drug metabolism (Cytochrome P450 3A5): metabolite_not_detected
